According to patent publication US20210299176A1, “COMPOSITIONS AND METHODS FOR TREATING CANCER AND AUTOIMMUNE DISEASES” (CEDARS-SINAI MEDICAL CENTER, priority 2018, published 2021):

Legend:
B16 melanoma = B16 melanoma implantation in C57 BL mice, treatment with GITR agonist; assay type: in vivo; conditions: intraperitoneal 30 mg/kg twice per week vs DMSO control; p=0.0333, log rank
Description: After implantation of B16 melanoma, C57 BL mice underwent treatment with 11702 GITR agonist or DMSO control. (A) Animals lived longer after GITR agonist intraperitoneal 30 mg/kg treatment twice per week (p=0.0333, log rank). (B) Tumor volume was inhibited in 11702 treated animals (p<0.05, Anova).
After implantation of B16 melanoma, C57 BL mice underwent treatment with 11702 GITR agonist or DMSO control. […] (B) Tumor volume was inhibited in 11702 treated animals (p<0.05, Anova).

[1] = system: CD4+CD25- cells (T effector cells); assay: T cell suppression assay (CFSE proliferation of T effector cells, FACS); assay type: cell-based, human; conditions: for inhibition (decrease) of T cell proliferation: T effector without T-reg
Excerpt: FIGS. 1A-1B show the results of where PBMC was isolated (Ficoll, GE Healthcare) from the WBC cone collected from healthy platelet donor. Cells were washed and passed through 40 um cell strainer before being stained with T cell surface antibodies. Then cells were put on cell sorter (BD FACSARIA III). Specific cell populations were collected as follows: CD4^+CD25^− cells (T effector cells), CD4^+CD25^+CD45RA^+CD127^− cells (T regulatory cells) and CD3^− cells (serve as Antigen Presenting Cells, APC). T effector cells were labeled with CellTrace CFSE (Invitrogen), heavily washed before cell number counting. Effector cells and T-regs were then mixed together at 1:1 ratio in culture media (RPMI 1640, 10% FBS, Pen-Strep and 1% NEAA) which enhanced with anti-CD3 (3 ug/ml) anti-CD28 (2 ug/ml) antibodies. APCs were treated with Mitomycin (50 ug/ml) for 30 minutes at 37° C., 5% CO2 incubator, then added to culture mix (APC:T-eff 2:1) as a proliferation co-stimulator. Cell mixture was incubated at 37° C., 5% CO2 for 6 days before being re-stained with T cell surface markers (CD4, CD25) and sent for FACS analysis. (A) T-eff fully stimulated; (B) T-eff fully stimulated+T-reg (1:1).
PBMC was isolated and specific human T cell populations were collected as follows: CD4^+CD25^− cells (T effector cells), CD4^+CD25^+CD45RA^+CD127^− cells (T regulatory cells) and CD3^− cells (serve as Antigen Presenting Cells, APC). T effector cells were labeled with CellTrace CFSE and effector cells and T-regs were then mixed together at 1:1 ratio in culture media (RPMI 1640, 10% FBS, Pen-Strep and 1% NEAA) which enhanced with anti-CD3 (3 ug/ml) anti-CD28 (2 ug/ml) antibodies. APCs were treated with Mitomycin (50 ug/ml) for 30 minutes at 37° C., 5% CO2 incubator, then added to culture mix (APC:T-eff 2:1) as a proliferation co-stimulator, incubated, and sent for FACS analysis. Molecule 11702 agonist and 11704 antagonist were added to treat groups respectively at a concentration gradient of 5 uM, 25 uM and 50 uM.
PBMC was isolated (Ficoll, GE Healthcare) from the WBC cone collected from healthy platelet donor. Cells were washed and passed through 40 um cell strainer before being stained with T cell surface antibodies. Then cells were put on cell sorter (BD FACSARIA III). Specific cell populations were collected as follows: CD4^+CD25^− cells (T effector cells), CD4^+CD25^+CD45RA^+CD127^− cells (T regulatory cells) and CD3^− cells (serve as Antigen Presenting Cells, APC). T effector cells were labeled with CellTrace CFSE (Invitrogen), heavily washed before cell number counting. Effector cells and T-regs were then mixed together at 1:1 ratio in culture media (RPMI 1640, 10% FBS, Pen-Strep and 1% NEAA) which enhanced with anti-CD3 (3 ug/ml) anti-CD28 (2 ug/ml) antibodies. […]

SMILES | survival of animals (B16 melanoma) | inhibition at 50 µM ([1]; Homo sapiens, T-cell, T effector + T-reg (1:1), 50 uM, read-out: inhibition (decrease) of proliferation compared to base line) [%] | effect on T effector cell population ([1]; T cell suppression assay, with and without Tregs, more effective in the presence of Tregs) | inhibition (decrease) of T cell proliferation ([1]; 5 uM) | inhibition (decrease) of T cell proliferation ([1]; 25 um)
OCC1OC(Nc2ccc(-c3ccc(NC4CC(O)C(CO)O4)cc3)cc2)CC1O (centres unmarked) [RMGL171102] | lived longer | – | – | – | –
O=C(CCCCC(=O)NN=Cc1cccc(O)c1)NN=Cc1cccc(O)c1 [RMGL171104] | – | 55.9 | dose dependent retraction of T effector cells | no significant effect | no significant effect
